Values of other authors, collected in US20210121528A1, “COMPOSITIONS FOR TREATING LUNG INFECTIONS BY AIRWAY ADMINISTRATION” (priority 2014, published 2021).
Read-outs that look alike come from different tables or passages of the source.

Columns and labels:
[1] = not given; remark: listed apart in the source
[2] = not given; remark: listed apart in the source
[3] = in vivo, po
[4] = tested on: strains of organisms from the susceptible genera
[5] = tested on: Staphylococcus, Streptococcus, Neisseria, Escherichia, Proteus (indole-negative), Serratia, Salmonella, Shigella, Pseudomonas, Haemophilus, Vibrio, and …; settings: aerobic genera
[6] = tested on: Moraxella catarrhalis, Burkholderia cepacia, Mycobacterium spp. and Stenotrophomonas maltophilia
[7] = tested on: Veillonella and Fusobacterium; settings: anaerobic genera
Prevotella = settings: anaerobic genus
[8] = tested on: methicillin-resistant Staphylococcus aureus and extended spectrum 13-lactamase (ESBL) enterobacteria; settings: resistant bacteria
[9] = human, in vivo
[10] = tested on: mammalian cells and organs
[11] = tested on: polymorphonuclear leukocytes
[12] = tested on: lethal pneumococcal pneumonia; settings: local delivery, mice
macrophages = settings: in vitro incubation

In the case of C[C@@H]1O[C@@H]1P(=O)(O)O [Fosfomycin disodium], the “pH of 5% solution” value is listed as 9.0-10.5, the solubility in water [1] is listed as “highly soluble” and the “irritation of the stomach / oral tolerability” value ([2]; in vivo, po) is listed as “irritant to the stomach”.

For C[C@@H]1O[C@@H]1P(=O)(O)O [Fosfomycin calcium monohydrate], the “pH of 0.4% solution” value (0.4% solution) is listed as 8.1-9.6, the solubility in water [1] is listed as “sparingly soluble” and the “irritation of the stomach / oral tolerability” value ([2]; in vivo, po) is listed as “less irritating to the stomach”.

For C[C@@H]1O[C@@H]1P(=O)(O)O.NC(CO)(CO)CO [Fosfomycin trometamol], the “pH of 5% solution” value is listed as 3.5-5.5, the solubility in water [1] is listed as “highly soluble” and the bioavailability [3] is listed as “about 40%”. For the same compound, the “irritation of the stomach / oral tolerability” value ([2]; oral) was “well tolerated”.

For C[C@@H]1O[C@@H]1P(=O)(O)O [fosfomycin, [(2R,3S)-3-methyloxiran-2-yl]phosphonic acid], the “synergistic effect, share of tested strains” value ([4]; early studies, various antibiotic combinations) is given as 70-100%, the synergy rates ([4]; subsequent more extensive studies) is given as 36-74% and the bactericidal activity [5] is given as “active”. For the same compound, the bactericidal activity [6] was “less active”, the bactericidal activity [7] was “active” and the bactericidal activity (Prevotella) was “moderately active”. For the same compound, the bactericidal activity [8] was “active”, the eosinophilia [9] was 0.2% and the transient rashes [9] was 0.3 % of cases. The “transiently raised liver enzymes” value [9] was 0.3 % of cases, the “toxicity to mammalian cells and organs” value [10] was “remarkably non-toxic” and the “concentration in polymorphonuclear leukocytes relative to the extracellular fluid” value [11] was “twice”.

For “GM-CSF: Monomeric protein of 127 amino-acid residues, colony-stimulating factor; SEQ ID NO: 2 mature human form”, the “protection from lethal pneumococcal pneumonia” value [12] is listed as “protects” and the “time for transformation of a resting macrophage into a fully immunocompetent dendritic cell” value (macrophages) is listed as “approximately 10 days”.
